Data published in US10947242B2, “[1,2,4]triazolo[1,5and#8208;A]pyrimidine compounds as PDE2 inhibitors” (Janssen Pharmaceutica NV, priority 2016, dated 2021).
pIC50: −log10 of the molar value. “And” between values parts separate entries of the source, which are not always exact repeats. Equal entries are not always repeated. Where two headings read alike, the source gives them in different places.

What was measured:
[1] = target: T1, Human recombinant PDE10A (hPDE10A) (Homo sapiens, UniProt Q9Y233); test: In vitro assay PDE10A, human clone (SPA, 3H-cAMP hydrolysis); assay type: biochemical
T1 construct: His tag (inferred from metal chelate purification); made in house; host or cells: Sf9 insect cells (baculovirus)
T1 sequence (Q9Y233 267-1055): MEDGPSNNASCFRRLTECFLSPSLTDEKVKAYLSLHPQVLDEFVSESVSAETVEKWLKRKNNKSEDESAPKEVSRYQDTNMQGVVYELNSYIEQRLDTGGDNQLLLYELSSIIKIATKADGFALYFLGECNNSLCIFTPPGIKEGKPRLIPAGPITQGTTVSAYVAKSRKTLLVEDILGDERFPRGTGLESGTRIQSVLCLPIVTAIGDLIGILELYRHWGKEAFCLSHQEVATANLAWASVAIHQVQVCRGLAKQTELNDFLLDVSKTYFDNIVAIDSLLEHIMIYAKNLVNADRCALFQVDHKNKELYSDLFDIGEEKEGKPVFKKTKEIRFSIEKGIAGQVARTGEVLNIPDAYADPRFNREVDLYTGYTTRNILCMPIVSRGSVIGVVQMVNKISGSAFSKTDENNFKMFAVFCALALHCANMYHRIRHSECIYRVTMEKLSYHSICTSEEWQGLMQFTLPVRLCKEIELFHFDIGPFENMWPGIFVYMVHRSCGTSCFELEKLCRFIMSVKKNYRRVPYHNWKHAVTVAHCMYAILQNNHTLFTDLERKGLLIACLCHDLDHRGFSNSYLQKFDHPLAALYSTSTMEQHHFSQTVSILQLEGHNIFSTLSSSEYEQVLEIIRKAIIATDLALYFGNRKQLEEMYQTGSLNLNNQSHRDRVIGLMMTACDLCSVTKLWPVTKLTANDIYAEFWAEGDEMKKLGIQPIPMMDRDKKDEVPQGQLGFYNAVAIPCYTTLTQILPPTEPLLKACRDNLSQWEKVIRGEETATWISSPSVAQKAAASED
Summary of the method: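 Hydrolysis of 3H-cAMP (60 nM cAMP, 0.008 μCi tracer) proceeded for 60 min at room temperature, with the product detected by SPA bead scintillation counting. The enzyme was hPDE10A from baculovirus-infected Sf9 cells in Tris pH 7.8 buffer with MgCl2 and EGTA, and compounds were at 1% DMSO final. Blanks lacked enzyme.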

PDE2A = target: T2, PDE2A (Rattus norvegicus, UniProt Q01062); test: PDE2 occupancy by test compounds, ex-vivo autoradiography with [3H]B-17a; assay type: in vivo, Male Wistar rats; conditions: for receptor occupancy at 10 mg/kg: percentage receptor occupancy, ex-vivo autoradiography, striatum; for ED50: read-out: PDE Occupancy ED50
T2 construct: Twenty μm-thick striatal sections were cut; from tissue; host or cells: rat brain, striatal sections
T2 sequence (Q01062 1-928): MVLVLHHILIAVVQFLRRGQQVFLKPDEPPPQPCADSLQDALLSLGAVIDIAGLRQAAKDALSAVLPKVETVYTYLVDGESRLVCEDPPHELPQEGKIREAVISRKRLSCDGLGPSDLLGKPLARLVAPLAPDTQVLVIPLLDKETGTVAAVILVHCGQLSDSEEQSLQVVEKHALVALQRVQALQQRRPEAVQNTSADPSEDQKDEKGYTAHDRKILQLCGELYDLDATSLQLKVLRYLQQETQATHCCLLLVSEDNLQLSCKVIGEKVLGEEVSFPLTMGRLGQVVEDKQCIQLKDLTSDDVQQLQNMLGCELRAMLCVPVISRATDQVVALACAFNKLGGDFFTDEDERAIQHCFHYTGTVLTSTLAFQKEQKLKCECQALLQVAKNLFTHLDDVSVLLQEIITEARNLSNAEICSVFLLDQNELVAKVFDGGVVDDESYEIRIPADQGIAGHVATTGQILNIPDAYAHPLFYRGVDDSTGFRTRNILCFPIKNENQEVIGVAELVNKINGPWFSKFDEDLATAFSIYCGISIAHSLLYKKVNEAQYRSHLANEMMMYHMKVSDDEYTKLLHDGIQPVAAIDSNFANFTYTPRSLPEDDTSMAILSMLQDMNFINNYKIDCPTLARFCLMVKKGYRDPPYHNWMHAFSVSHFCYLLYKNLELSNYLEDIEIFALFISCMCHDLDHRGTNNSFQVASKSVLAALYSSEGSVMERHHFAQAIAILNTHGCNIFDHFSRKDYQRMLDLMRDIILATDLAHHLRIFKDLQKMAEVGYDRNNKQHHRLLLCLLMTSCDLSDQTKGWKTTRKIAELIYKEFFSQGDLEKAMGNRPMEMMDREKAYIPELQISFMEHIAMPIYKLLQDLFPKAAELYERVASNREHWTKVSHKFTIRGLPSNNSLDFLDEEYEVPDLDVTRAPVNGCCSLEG

[2] = target: T3, Human recombinant PDE2A (hPDE2A) (Homo sapiens, UniProt O00408); test: In vitro assay PDE2A (SPA, 3H-cGMP hydrolysis); assay type: biochemical; conditions: for Emax: read-out: hPDE2A Emax; for IC50: read-out: hPDE2A pIC50 (converted)
T3 construct: His tag (inferred from metal chelate purification); made in house; host or cells: Sf9 insect cells (baculovirus)
T3 sequence (O00408 whole entry): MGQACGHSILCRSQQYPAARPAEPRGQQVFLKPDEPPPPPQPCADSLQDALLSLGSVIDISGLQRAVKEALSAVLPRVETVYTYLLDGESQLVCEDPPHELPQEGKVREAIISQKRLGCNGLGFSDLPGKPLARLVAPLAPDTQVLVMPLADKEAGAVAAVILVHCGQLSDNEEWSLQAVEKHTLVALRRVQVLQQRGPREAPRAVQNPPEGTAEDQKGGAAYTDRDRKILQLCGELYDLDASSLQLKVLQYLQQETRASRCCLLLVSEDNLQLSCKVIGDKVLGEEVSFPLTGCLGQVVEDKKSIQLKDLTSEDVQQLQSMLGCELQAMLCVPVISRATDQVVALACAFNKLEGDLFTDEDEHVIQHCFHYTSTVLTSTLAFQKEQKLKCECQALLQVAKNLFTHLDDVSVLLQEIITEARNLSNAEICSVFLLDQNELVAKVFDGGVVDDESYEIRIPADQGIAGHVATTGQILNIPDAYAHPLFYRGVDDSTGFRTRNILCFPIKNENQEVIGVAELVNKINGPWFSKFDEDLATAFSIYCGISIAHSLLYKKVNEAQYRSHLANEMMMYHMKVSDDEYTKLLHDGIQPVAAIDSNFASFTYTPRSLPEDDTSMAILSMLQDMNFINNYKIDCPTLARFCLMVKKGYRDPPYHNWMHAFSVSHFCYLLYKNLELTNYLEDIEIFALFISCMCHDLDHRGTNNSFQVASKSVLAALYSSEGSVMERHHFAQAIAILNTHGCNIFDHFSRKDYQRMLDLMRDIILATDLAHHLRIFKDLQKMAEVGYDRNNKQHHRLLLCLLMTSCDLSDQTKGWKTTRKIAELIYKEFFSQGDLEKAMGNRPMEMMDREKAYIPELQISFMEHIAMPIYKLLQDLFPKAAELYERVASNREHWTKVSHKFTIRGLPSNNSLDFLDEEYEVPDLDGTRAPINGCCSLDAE

[3] = target: T4, Human recombinant PDE3A (hPDE3A) (Homo sapiens, UniProt Q14432); test: In vitro assay PDE3A (SPA, 3H-cAMP hydrolysis); assay type: biochemical; conditions: for IC50: hPDE3B pIC50, read-out: pIC50 (converted); for Emax: read-out: hPDE3B Emax, read-out: Emax;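 for all read-outs here: the method names PDE3A and the table heading PDE3B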
T4 construct: purchased Scottish Biomedical; host or cells: Sf9 insect cells
T4 sequence (Q14432 whole entry): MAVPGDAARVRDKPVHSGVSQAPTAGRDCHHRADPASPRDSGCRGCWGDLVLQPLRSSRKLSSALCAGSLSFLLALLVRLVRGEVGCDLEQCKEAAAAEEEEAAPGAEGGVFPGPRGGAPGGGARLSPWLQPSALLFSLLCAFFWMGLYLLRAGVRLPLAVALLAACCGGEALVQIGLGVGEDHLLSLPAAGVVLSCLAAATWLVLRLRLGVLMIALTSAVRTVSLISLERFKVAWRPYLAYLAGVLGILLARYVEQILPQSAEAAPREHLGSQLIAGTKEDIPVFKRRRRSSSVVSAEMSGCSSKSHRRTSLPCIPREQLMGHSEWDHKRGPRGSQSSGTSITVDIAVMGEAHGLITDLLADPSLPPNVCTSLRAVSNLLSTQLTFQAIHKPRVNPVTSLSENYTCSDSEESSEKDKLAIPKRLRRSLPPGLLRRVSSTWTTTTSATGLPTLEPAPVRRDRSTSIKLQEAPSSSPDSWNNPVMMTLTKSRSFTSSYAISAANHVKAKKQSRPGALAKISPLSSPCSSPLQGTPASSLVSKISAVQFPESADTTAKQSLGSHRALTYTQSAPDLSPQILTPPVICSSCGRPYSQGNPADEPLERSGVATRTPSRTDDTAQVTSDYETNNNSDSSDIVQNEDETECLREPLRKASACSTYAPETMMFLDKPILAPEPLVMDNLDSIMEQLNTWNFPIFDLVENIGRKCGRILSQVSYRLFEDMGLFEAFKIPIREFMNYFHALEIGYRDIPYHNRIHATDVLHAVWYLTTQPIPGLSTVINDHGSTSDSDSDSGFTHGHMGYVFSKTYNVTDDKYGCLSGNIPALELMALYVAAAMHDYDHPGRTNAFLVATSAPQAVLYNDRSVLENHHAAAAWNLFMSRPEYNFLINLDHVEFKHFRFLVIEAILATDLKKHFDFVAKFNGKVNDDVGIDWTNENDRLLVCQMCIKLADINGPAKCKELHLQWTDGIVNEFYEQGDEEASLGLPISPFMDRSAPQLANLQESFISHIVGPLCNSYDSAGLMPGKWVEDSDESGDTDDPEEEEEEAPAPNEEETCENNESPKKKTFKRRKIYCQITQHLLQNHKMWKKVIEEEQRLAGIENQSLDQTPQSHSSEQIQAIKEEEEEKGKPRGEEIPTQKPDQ
Summary of the method: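 Radiometric SPA measuring [3H]-cAMP hydrolysis (0.4 μM cAMP, 2.4 μCi/ml) over 60 min at room temperature, in Tris pH 7.8 buffer with MgCl2 and EGTA, 1% DMSO. Enzyme: recombinant human brain PDE3A expressed in Sf9 cells, used as partially purified lysate. Counts compared with enzyme-free blanks and vehicle controls.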

[4] = human clone by default (no (r) mark), read-out: hPDE10A2 or rPDE10A2 Emax
[5] = human clone by default (no (r) mark), read-out: hPDE10A2 or rPDE10A2 pIC50 (converted)
[6] = route PO (oral), drug dose producing 50% receptor occupancy
[7] = human clone (h), default, read-out: hPDE10A2 Emax
[8] = human clone (h), default, read-out: hPDE10A2 pIC50 (converted)
[9] = human recombinant PDE2A, 10 μM cGMP substrate

## Cc1cc([C@@H]2CN(C(=O)c3cc(C4CC4)ncc3F)CC[C@H]2C)n2ncnc2n1 [Compound 224]
[1]; [4]
  Emax: 99%
[1]; [5]
  IC50: 70.8 nM
PDE2A; po, route PO (oral)
  receptor occupancy at 10 mg/kg: -6%
other
  melting point: 153.14 °C
[2]
  Emax: 100%
  IC50: 3.02 nM
[3]
  IC50: 1050 nM
  Emax: 87%

## Cc1cc(C(=O)N2CC[C@@H](C)[C@H](c3cc(C(F)F)nc4ncnn34)C2)cc(OC(F)F)n1 [Compound 281]
[1]; [4]
  Emax: 99%
[1]; [5]
  IC50: 110 nM
PDE2A; po, route PO (oral)
  receptor occupancy at 10 mg/kg: 57%
PDE2A; [6]
  ED50: 4.2 mg/kg
other
  melting point: 114.59 °C
[2]
  Emax: 100%
  IC50: 1.66 nM
[3]
  IC50: 2240 nM
  Emax: 87%

## Cc1cc(C(=O)N2CC[C@@H](C)[C@H](c3cc(C(F)F)nc4ncnn34)C2)cc(C2CC2)n1 [Compound 93]
[1]; [7]
  Emax: 99%
[1]; [8]
  IC50: 36.3 nM and 39.8 nM
PDE2A; po, route PO (oral)
  receptor occupancy at 10 mg/kg: 85%
PDE2A; [6]
  ED50: 7.8 mg/kg
other
  melting point: 201.12 °C
[2]; [9]
  IC50: 0.398 nM
[2]; human recombinant PDE2A
  Emax: 101%
[2]
  Emax: 101%
  IC50: 0.457 nM
[3]
  IC50: 2570 nM
  Emax: 84%

## COc1cc(C(=O)N2CC[C@@H](C)[C@H](c3cc(C)nc4ncnn34)C2)c(F)cn1 [Compound 225]
[1]; [4]
  Emax: 98%
[1]; [5]
  IC50: 93.3 nM
PDE2A; po, route PO (oral)
  receptor occupancy at 10 mg/kg: -6%
other
  melting point: 178.64 °C
[2]
  Emax: 99%
  IC50: 11.5 nM
[3]
  IC50: 1780 nM
  Emax: 83%

## C[C@@H]1CCN(C(=O)c2cn(C)c3ccccc23)C[C@H]1c1cc(C(F)F)nc2ncnn12 [Compound 328]
[1]; [4]
  Emax: 100%
[1]; [5]
  IC50: 61.7 nM
PDE2A; po, route PO (oral)
  receptor occupancy at 10 mg/kg: -18%
other
  melting point: 247.48 °C
[2]
  Emax: 100%
  IC50: 0.631 nM
[3]
  IC50: 1480 nM
  Emax: 90%

## COc1c(C)cc(C(=O)N2CC[C@@H](C)[C@H](c3cc(C(F)F)nc4ncnn34)C2)cc1C [Compound 77]
[1]; [7]
  Emax: 98%
[1]; [8]
  IC50: 83.2 nM
PDE2A; po, route PO (oral)
  receptor occupancy at 10 mg/kg: 54%
PDE2A; [6]
  ED50: 5.67 mg/kg
other
  melting point: 177.37 °C
[2]; [9]
  IC50: 0.457 nM
[2]; human recombinant PDE2A
  Emax: 101%
[2]
  Emax: 101%
  IC50: 0.457 nM
[3]
  IC50: 676 nM
  Emax: 96%

## COc1nc(C)cc(C(=O)N2CC[C@@H](C)[C@H](c3cc(C(F)F)nc4ncnn34)C2)c1F [Compound 282]
[1]; [4]
  Emax: 98%
[1]; [5]
  IC50: 275 nM
PDE2A; po, route PO (oral)
  receptor occupancy at 10 mg/kg: 47%
PDE2A; [6]
  ED50: 11.8 mg/kg
other
  melting point: 193.33 °C
[2]
  Emax: 100%
  IC50: 2.88 nM
[3]
  IC50: 1700 nM
  Emax: 88%

## O=C(c1ccc(Cl)c(Cl)c1)N1[C@H]2CC[C@H](c3cc(C(F)F)nc4ncnn34)[C@@H]1CC2 [Compound 356]
[1]; [4]
  Emax: 92%
[1]; [5]
  IC50: 933 nM
PDE2A; route PO (oral)
  receptor occupancy at 10 mg/kg: 51%
PDE2A; po
  ED50: 5.55 mg/kg
other
  melting point: 187.93 °C
[2]
  Emax: 99%
  IC50: 5.37 nM
[3]
  IC50: 5890 nM
  Emax: 65%

## O=C(c1ccc2ncsc2c1)N1[C@H]2CC[C@H](c3cc(C(F)F)nc4ncnn34)[C@@H]1CC2 [Compound 25a]
[1]; human clone (h), default
  hPDE10A2 Emax: 96
[1]; [7]
  Emax: 94%
[1]; [8]
  IC50: 589 nM and 389 nM
PDE2A; route SC (subcutaneous)
  receptor occupancy at 10 mg/kg: 66%
PDE2A; po
  ED50: 4 mg/kg
other
  melting point: 240.33 °C
[2]; [9]
  IC50: 0.708 nM
[2]; human recombinant PDE2A
  Emax: 100%
[2]
  Emax: 100%
  IC50: 1.07 nM
[3]
  IC50: 8710 nM
  Emax: 54%

## C[C@@H]1CCN(C(=O)c2ccnc(C3CC3)c2F)C[C@H]1c1cc(C(F)F)nc2ncnn12 [Compound 120]
[1]; [7]
  Emax: 96%
[1]; [8]
  IC50: 200 nM
PDE2A; po, route PO (oral)
  receptor occupancy at 10 mg/kg: 12%
other
  melting point: 173.99 °C
[2]; [9]
  IC50: 1.74 nM
[2]; human recombinant PDE2A
  Emax: 100%
[2]
  Emax: 100%
  IC50: 1.74 nM
[3]
  IC50: 708 nM
  Emax: 95%

## C[C@@H]1CCN(C(=O)c2ccc3cc[nH]c3c2)C[C@H]1c1cc(C(F)F)nc2ncnn12 [Compound 106]
[1]; [7]
  Emax: 99%
[1]; [8]
  IC50: 21.4 nM
PDE2A; po, route PO (oral)
  receptor occupancy at 10 mg/kg: 0%
other
  melting point: 273.02 °C
[2]; [9]
  IC50: 0.891 nM
[2]; human recombinant PDE2A
  Emax: 100%
[2]
  Emax: 100%
  IC50: 0.891 nM
[3]
  IC50: 389 nM
  Emax: 98%

## Cc1csc(C(=O)N2CC[C@@H](C)[C@H](c3cc(C(F)F)nc4ncnn34)C2)c1 [Compound 126]
[1]; [7]
  Emax: 97%
[1]; [8]
  IC50: 112 nM
PDE2A; po, route PO (oral)
  receptor occupancy at 10 mg/kg: 31%
other
  melting point: 114.32 °C
[2]; [9]
  IC50: 2.09 nM
[2]; human recombinant PDE2A
  Emax: 101%
[2]
  Emax: 101%
  IC50: 2.09 nM
[3]
  IC50: 6030 nM
  Emax: 65%

## C[C@@H]1CCN(C(=O)c2cc3ccccc3o2)C[C@H]1c1cc(C(F)F)nc2ncnn12 [Compound 69]
[1]; [7]
  Emax: 100%
[1]; [8]
  IC50: 45.7 nM
PDE2A; po, route PO (oral)
  receptor occupancy at 10 mg/kg: 0%
other
  melting point: 209.73 °C
[2]; [9]
  IC50: 0.407 nM
[2]; human recombinant PDE2A
  Emax: 102%
[2]
  Emax: 102%
  IC50: 0.407 nM
[3]
  IC50: 380 nM
  Emax: 95%

## Cc1cc(C(=O)N2CC[C@@H](C)[C@H](c3cc(C(F)F)nc4ncnn34)C2)cc(F)c1F [Compound 189]
[1]; [7]
  Emax: 96%
[1]; [8]
  IC50: 186 nM
PDE2A; po, route PO (oral)
  receptor occupancy at 10 mg/kg: 9%
other
  melting point: 152.03 °C
[2]; hPDE2A pIC50
  pIC50: 8.29
[2]; hPDE2A pIC50, human recombinant PDE2A, 10 μM cGMP substrate
  pIC50: 8.29
[2]
  Emax: 100%
[3]
  IC50: 2750 nM
  Emax: 80%
